Data on 22 compounds can be found in patent publication US11319324B2, “Pyrazolo-pyrrolo-pyrimidine-dione derivatives as P2X3 inhibitors” (Bayer Aktiengesellschaft, priority 2017, dated 2022).

Common to all, as to assay type: cell-based
Experiment [1] deals with T1, human P2X2/3 receptors (Homo sapiens, UniProt P56373+Q9UBL9).
T1 construct: expressed in transfected cells; host or cells: human astrocytoma 1321N1 (1312N1 [sic])
T1 sequence (P56373 1-397): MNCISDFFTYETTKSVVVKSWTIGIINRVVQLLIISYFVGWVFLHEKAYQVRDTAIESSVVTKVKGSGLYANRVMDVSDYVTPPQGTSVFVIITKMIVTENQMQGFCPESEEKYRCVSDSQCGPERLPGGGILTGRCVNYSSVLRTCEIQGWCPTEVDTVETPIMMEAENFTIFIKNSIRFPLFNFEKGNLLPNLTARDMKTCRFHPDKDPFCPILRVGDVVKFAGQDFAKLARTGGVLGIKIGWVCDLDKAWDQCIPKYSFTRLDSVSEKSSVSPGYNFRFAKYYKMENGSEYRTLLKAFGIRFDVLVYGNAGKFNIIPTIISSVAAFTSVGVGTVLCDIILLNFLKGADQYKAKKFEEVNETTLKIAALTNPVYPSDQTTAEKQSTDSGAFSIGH
T1 sequence (Q9UBL9 1-471): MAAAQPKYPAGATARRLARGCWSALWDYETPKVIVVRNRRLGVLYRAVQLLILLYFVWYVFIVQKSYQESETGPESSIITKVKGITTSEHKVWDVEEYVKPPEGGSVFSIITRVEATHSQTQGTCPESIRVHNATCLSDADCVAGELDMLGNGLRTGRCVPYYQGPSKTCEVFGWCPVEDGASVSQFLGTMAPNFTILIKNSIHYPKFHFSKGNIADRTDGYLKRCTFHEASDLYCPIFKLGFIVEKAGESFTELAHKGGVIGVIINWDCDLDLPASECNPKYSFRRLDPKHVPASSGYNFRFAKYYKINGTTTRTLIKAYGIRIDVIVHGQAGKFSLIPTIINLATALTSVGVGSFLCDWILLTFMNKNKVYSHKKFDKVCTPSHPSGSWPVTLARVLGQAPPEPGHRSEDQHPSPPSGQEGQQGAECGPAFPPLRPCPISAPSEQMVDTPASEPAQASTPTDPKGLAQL
The experiment can be described thus: Intracellular calcium measurement, antagonist activity at human P2X2/3 receptors (hP2X23 1321N1), Fluo8. As to conditions: for IC50: column 4); 1321N1 cells, human P2X2/3, Fluo8, agonist ATP at EC50; read-out: 4) hP2X2/3 IC50 [nM] (1321N1); for hP2X23/hP2X3* Selectivity (1321N1): ratio of column 4) hP2X2/3 to column 3) hP2X3, 1321N1. The procedure, abridged:
(§1)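 Antagonism was assessed by decrease of the Fluo8 calcium signal after ATP challenge, with ATP dosed at the EC50 of whichever receptor was tested. Stable 1321N1 astrocytoma lines expressed either human P2X3 or both P2X2 and P2X3, and were dye-loaded 60 min before a 10 min compound incubation.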
For orientation: Calcium assays in cells follow changes in intracellular calcium, usually with a dye or a luminescent sensor.

The target of experiment [2] is T2, human P2X3 receptor (Homo sapiens, UniProt P56373).
T2 sequence (P56373 1-397): T1 sequence (P56373 1-397)
The experiment can be described thus: Intracellular calcium measurement to assess antagonist activity at human P2X3 receptors (hP2X3 CHO), photina luminescence. Details: expressed in transfected cells; host or cells: Chinese hamster ovary (CHO) cells. The following applies: column 2), CHO cells, agonist α,β-methylene-ATP at EC50. The procedure, abridged: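 Antagonism read as lowered photina luminescence after agonist stimulation in recombinant hP2X3/photina CHO cells. Cells seeded one day earlier (30 °C) and reconstituted with 5 μg/ml coelenterazine in 2 mM Ca-tyrode buffer for 3 h at 37 °C before measurement.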

The target of experiment [3] is T2, human P2X3 receptor. Description: Intracellular calcium measurement, antagonist activity at human P2X3 receptors (hP2X3 1321N1), Fluo8. The following applies: column 3); 1321N1 cells, human P2X3, Fluo8, agonist ATP at EC50. Also noted: expressed in transfected cells; host or cells: human astrocytoma 1321N1 (1312N1 [sic]). The procedure, abridged: as §1

Where only a bound is given, the exact number is not on record here.

As for `CCc1cc2n(CC(=O)Nc3ccc(F)cn3)c3c(c(=O)n2n1)CN(C1CCN(C)C1)C3=O` (stereo not shown) [Example 253], the IC50 in experiment [1] is more than 32000 nM; in experiment [2], 493 nM; in experiment [3], 793 nM. Also, the “hP2X23/hP2X3* Selectivity (1321N1)” value in experiment [1] is on record as more than 40.
On to `CCc1cc2n(CC(=O)Nc3ccc(F)cn3)c3c(c(=O)n2n1)CN(C[C@H]1CN(C)CCO1)C3=O` [Example 255, 2-(2-ethyl-6-{[(2R)-4-methylmorpholin-2-yl]methyl}-5,8-dioxo-5,6,7,8-tetrahydro-4H-pyrazolo[1,5-a]pyrrolo[3,4-d]pyrimidin-4-yl)-N-(5-fluoropyridin-2-yl)acetamide], for which the IC50 in experiment [1] is 11300 nM; in experiment [2] it was 400 nM; in experiment [3], 440 nM. Further, the “hP2X23/hP2X3* Selectivity (1321N1)” value in experiment [1] was 26.
As to `CCc1cc2n(CC(=O)Nc3ccc(F)cn3)c3c(c(=O)n2n1)CN(C[C@H]1CN(C(C)C)CCO1)C3=O` [Example 256, 2-(2-ethyl-5,8-dioxo-6-{[(2R)-4-(propan-2-yl)morpholin-2-yl]methyl}-5,6,7,8-tetrahydro-4H-pyrazolo[1,5-a]pyrrolo[3,4-d]pyrimidin-4-yl)-N-(5-fluoropyridin-2-yl)acetamide], the IC50 turned out to be 1590 nM in experiment [1], 42 nM in experiment [2] and 53 nM in experiment [3]. Moreover, in experiment [1], the “hP2X23/hP2X3* Selectivity (1321N1)” value was 30.
As for `CCc1cc2n(CC(=O)Nc3ccc(F)cn3)c3c(c(=O)n2n1)CN(C[C@H]1CN(C2CCC2)CCO1)C3=O` [Example 257], the IC50 in experiment [1] turned out to be 660 nM; in experiment [2], 54 nM; in experiment [3], 57 nM. In addition, in experiment [1], the “hP2X23/hP2X3* Selectivity (1321N1)” value was determined as 12.
As for `CCc1cc2n(CC(=O)Nc3ccc(F)cn3)c3c(c(=O)n2n1)CN(C[C@H]1CN(C2CC2)CCO1)C3=O` [Example 258], the IC50 was determined as 1080 nM in experiment [1], 66 nM in experiment [2] and 52 nM in experiment [3]. Also, the “hP2X23/hP2X3* Selectivity (1321N1)” value in experiment [1] is reported as 21.
On the same counts, the results for `CCc1cc2n(CC(=O)Nc3ccc(F)cn3)c3c(c(=O)n2n1)CN(C[C@H]1CN(CCC(F)(F)F)CCO1)C3=O` [Example 259] are 1170 nM, 33 nM, 71 nM and 16.
As for `CCc1cc2n(CC(=O)Nc3ccc(F)cn3)c3c(c(=O)n2n1)CN(C[C@@H]1COCCN1C(C)C)C3=O` [Example 260], the figures for the IC50 in experiment [1], in experiment [2] and in experiment [3] were more than 20600 nM, 108 nM and 141 nM, respectively. The “hP2X23/hP2X3* Selectivity (1321N1)” value in experiment [1] is more than 146.
On the same counts, the results for `CCc1cc2n(CC(=O)Nc3ccc(F)cn3)c3c(c(=O)n2n1)CN(C[C@@H]1COCCN1CCC(F)(F)F)C3=O` [Example 261] are 5550 nM, 41 nM, 39 nM and 142.
As for `CC(=O)N1CCC(c2cc3n(CC(=O)Nc4ccc(F)cn4)c4c(c(=O)n3n2)CN(C(C)C)C4=O)CC1` [Example 263, 2-[2-(1-acetylpiperidin-4-yl)-5,8-dioxo-6-(propan-2-yl)-5,6,7,8-tetrahydro-4H-pyrazolo[1,5-a]pyrrolo[3,4-d]pyrimidin-4-yl]-N-(5-fluoropyridin-2-yl)acetamide], the IC50 is 4700 nM in experiment [1], 35 nM in experiment [2] and 25 nM in experiment [3]. Also, the “hP2X23/hP2X3* Selectivity (1321N1)” value in experiment [1] came to 191.
For `CC(C)N1Cc2c(n(CC(=O)Nc3ccc(F)cn3)c3cc(C4CCN(C(=O)C(F)F)CC4)nn3c2=O)C1=O` [Example 264], the IC50 in experiment [1] amounted to 7400 nM; in experiment [2], 36 nM; in experiment [3], 17 nM. The “hP2X23/hP2X3* Selectivity (1321N1)” value in experiment [1] worked out at 427.
With `CCc1cc2n(CC(=O)Nc3ccc(F)cn3)c3c(c(=O)n2n1)CN(C1CCN(C(C)=O)C1)C3=O` (stereo not shown) [Example 265], the IC50 in experiment [1] was more than 32000 nM; in experiment [2], 533 nM; in experiment [3] it was 470 nM. The “hP2X23/hP2X3* Selectivity (1321N1)” value in experiment [1] is more than 68.
On the same counts, the results for `CCc1cc2n(CC(=O)Nc3ccc(F)cn3)c3c(c(=O)n2n1)CN(C1CCN(C(=O)C(F)F)C1)C3=O` (stereo not shown) [Example 266] are more than 32000 nM, 270 nM, 317 nM and more than 101.
On to `CCc1cc2n(CC(=O)Nc3ccc(F)cn3)c3c(c(=O)n2n1)CN(C[C@H]1CN(C(C)=O)CCO1)C3=O` [Example 267], for which the IC50 in experiment [1] turned out to be 8000 nM; in experiment [2], 557 nM; in experiment [3], 325 nM. The “hP2X23/hP2X3* Selectivity (1321N1)” value in experiment [1] was found to be 25.
On the same counts, the results for `CC(C)N1Cc2c(n(CC(=O)Nc3ccc(F)cn3)c3cc(C4CCN(S(=O)(=O)CC(F)(F)F)C4)nn3c2=O)C1=O` (stereo not shown) [Example 271] are more than 20500 nM, 81 nM, 36 nM and more than 569.
The like results for `CCc1cc2n(CC(=O)Nc3ccc(F)cn3)c3c(c(=O)n2n1)CN(C1CCN(S(C)(=O)=O)C1)C3=O` (stereo not shown) [Example 272] were, in that order, more than 32000 nM, 433 nM, 610 nM and more than 52.
Consider `CC(C)N1Cc2c(n(CC(=O)Nc3ccc(F)cn3)c3cc(NCCO)nn3c2=O)C1=O` [Example 276, N-(5-fluoropyridin-2-yl)-2-{2-[(2-hydroxyethyl)amino]-5,8-dioxo-6-(propan-2-yl)-5,6,7,8-tetrahydro-4H-pyrazolo[1,5-a]pyrrolo[3,4-d]pyrimidin-4-yl}acetamide], for which the IC50 in experiment [1] is more than 20200 nM; in experiment [2], 130 nM; in experiment [3], 91 nM. In addition, the “hP2X23/hP2X3* Selectivity (1321N1)” value in experiment [1] is on record as more than 223.
On to `CCc1cc2n(CC(=O)Nc3ccc(F)cn3)c3c(c(=O)n2n1)CN(C[C@@H]1CCCO1)C3=O` [Example 279, 2-{2-ethyl-5,8-dioxo-6-[(2S)-tetrahydrofuran-2-ylmethyl]-5,6,7,8-tetrahydro-4H-pyrazolo[1,5-a]pyrrolo[3,4-d]pyrimidin-4-yl}-N-(5-fluoropyridin-2-yl)acetamide], for which the IC50 was more than 23000 nM in experiment [1], 210 nM in experiment [2] and 270 nM in experiment [3]. Also, the “hP2X23/hP2X3* Selectivity (1321N1)” value in experiment [1] is on record as more than 85.
Take `CC(=O)Nc1cc2n(CC(=O)Nc3ccc(F)cn3)c3c(c(=O)n2n1)CN(C(C)C)C3=O` [Example 282, 2-[2-(acetylamino)-5,8-dioxo-6-(propan-2-yl)-5,6,7,8-tetrahydro-4H-pyrazolo[1,5-a]pyrrolo[3,4-d]pyrimidin-4-yl]-N-(5-fluoropyridin-2-yl)acetamide]: the IC50 was more than 32000 nM in experiment [1], 110 nM in experiment [2] and 323 nM in experiment [3]. In addition, in experiment [1], the “hP2X23/hP2X3* Selectivity (1321N1)” value is listed as more than 99.
On the same counts, the results for `CC(C)N1Cc2c(n(CC(=O)Nc3ccc(F)cn3)c3cc(NC(=O)C(F)F)nn3c2=O)C1=O` [Example 283] are more than 32000 nM, 165 nM, 347 nM and more than 92.
On the same counts, the results for `CC(C)N1Cc2c(n(CC(=O)Nc3ccc(F)cn3)c3cc(NC(=O)C4CCOCC4)nn3c2=O)C1=O` [Example 284] are 9350 nM, 57 nM, 47 nM and 201.
On the same counts, the results for `COCC(=O)Nc1cc2n(CC(=O)Nc3ccc(F)cn3)c3c(c(=O)n2n1)CN(C(C)C)C3=O` [Example 285] are 12000 nM, 110 nM, 143 nM and 84.
In the case of `CC(C)N1Cc2c(n(CC(=O)Nc3ccc(F)cn3)c3cc(NC(=O)c4cnn[nH]4)nn3c2=O)C1=O` [Example 286], the IC50 in experiment [1] worked out at 8200 nM; in experiment [2], 22 nM; in experiment [3] it was 33 nM. Further, in experiment [1], the “hP2X23/hP2X3* Selectivity (1321N1)” value was determined as 248.
